In ChEMBL document CHEMBL5226333, “Targeting Autophagy-Related Epigenetic Regulators for Cancer Drug Discovery” (J Med Chem, 2021) one finds IC50 and Cmax data, which are given here for two compounds.

The structures appear in SMILES notation.

For orientation: IC50 means the concentration at which inhibition is half-maximal. What is called Cmax is the maximum level reached in the sampled fluid or tissue.

The target of series [1] is Histone-lysine N-methyltransferase EZH2 (Homo sapiens, UniProt Q15910). Briefly: Inhibition of EZH2 (unknown origin) in PRC2 complex using H3 (1 to 24 residues) and 3H-SAM as substrate incubated for 1 hrs by Scintillation proximity assay.
The nature of series [2]: Cmax in Swiss albino mouse plasma at 50 mg/kg,po and measured after 24 hrs. Format: ADME, organism-based. Details: time 24 hrs, dose 50 mg/kg, route po. Particulars: in vivo.
The nature of series [3]: Inhibition of GST-tagged […] human GLP (610 to 917 residues) methylation activity expressed in Escherichia coli BL21 assessed as reduction in H3K9me3 level using H3(1 to 20 residues)-cys-biotin and SAM as substrate incubated for 60 mins by Dissociation enhanced lanthanide fluoro-immuno assay.

Sequence of Histone-lysine N-methyltransferase EZH2 (Q15910 whole entry, the tested form may be a part): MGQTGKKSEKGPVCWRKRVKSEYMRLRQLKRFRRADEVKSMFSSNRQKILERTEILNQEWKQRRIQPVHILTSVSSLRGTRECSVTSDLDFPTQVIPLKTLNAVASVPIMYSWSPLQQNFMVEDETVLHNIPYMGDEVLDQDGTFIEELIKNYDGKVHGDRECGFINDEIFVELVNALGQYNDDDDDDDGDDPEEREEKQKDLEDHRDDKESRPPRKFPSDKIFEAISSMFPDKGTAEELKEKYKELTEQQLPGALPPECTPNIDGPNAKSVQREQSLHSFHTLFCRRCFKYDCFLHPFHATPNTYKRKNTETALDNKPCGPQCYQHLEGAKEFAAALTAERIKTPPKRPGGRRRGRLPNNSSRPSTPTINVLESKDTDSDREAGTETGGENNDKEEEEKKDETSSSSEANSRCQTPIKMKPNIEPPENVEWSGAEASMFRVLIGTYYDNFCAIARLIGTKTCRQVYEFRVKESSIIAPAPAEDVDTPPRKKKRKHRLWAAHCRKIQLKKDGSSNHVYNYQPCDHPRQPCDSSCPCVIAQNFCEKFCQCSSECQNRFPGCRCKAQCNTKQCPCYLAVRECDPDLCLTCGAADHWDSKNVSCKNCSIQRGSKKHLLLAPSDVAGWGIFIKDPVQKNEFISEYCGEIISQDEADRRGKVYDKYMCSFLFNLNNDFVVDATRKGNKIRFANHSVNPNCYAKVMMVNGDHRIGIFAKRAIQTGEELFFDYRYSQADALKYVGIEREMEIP

In turn, `CCCc1cc(C)[nH]c(=O)c1CNC(=O)c1cc(-c2ccc(N3CCN(C(C)C)CC3)nc2)cc2c1cnn2C(C)C` came in with an IC50 in series [1] below 0.01 µM. In addition, in series [2], the concentration peaked (Cmax) at 4.7 µM.
As for `COc1cc2nc(N3CCCN(C)CC3)nc(NC3CCN(Cc4ccccc4)CC3)c2cc1OC`, the 50% inhibitory concentration (IC50) in series [3] is 38 µM.
